“And” between values parts separate entries of the source, which are not always exact repeats. Equal entries are not always repeated. Toxic doses and inconclusive results are not listed. No stated cut-off is given here; in the data, active means T/C of 150% or more; inactive means T/C below 125%.
System: L1210 leukemia ip in BDF1 mice, survival T/C
Assay: NCI In Vivo Anticancer Drug Screen. Data for tumor model L1210 Leukemia (intraperitoneal) in B6D2F1 (BDF1) mice
Details: endpoint: mean survival time, higher = longer survival
How it was run: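 Antitumor effect is assessed in tumor-bearing animals. Survival in the compound arm is compared with a vehicle-dosed control arm and expressed as their quotient.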

[1] = dose: 100.0 mg/kg/injection, schedule: Q01DX001 (ip), vehicle: saline
[2] = dose: 200.0 mg/kg/injection, schedule: Q01DX001 (ip), vehicle: saline
[3] = dose: 400.0 mg/kg/injection, schedule: Q01DX001 (ip), vehicle: saline
[4] = dose: 100.0 mg/kg/injection, schedule: Q04DX003 (ip), vehicle: Klucel (hydroxypropylcellulose) (HPC)
[5] = dose: 200.0 mg/kg/injection, schedule: Q04DX003 (ip), vehicle: Klucel (hydroxypropylcellulose) (HPC)
[6] = dose: 100.0 mg/kg/injection, schedule: Q01DX009 (ip), vehicle: Klucel (hydroxypropylcellulose) (HPC)
[7] = dose: 200.0 mg/kg/injection, schedule: Q01DX009 (ip), vehicle: Klucel (hydroxypropylcellulose) (HPC)
[8] = dose: 400.0 mg/kg/injection, schedule: Q01DX009 (ip), vehicle: Klucel (hydroxypropylcellulose) (HPC)
[9] = dose: 400.0 mg/kg/injection, schedule: Q04DX003 (ip), vehicle: Klucel (hydroxypropylcellulose) (HPC)
[10] = dose: 100.0 mg/kg/injection, schedule: Q01DX009 (ip), vehicle: saline with Tween-80
[11] = dose: 200.0 mg/kg/injection, schedule: Q01DX009 (ip), vehicle: saline with Tween-80
[12] = dose: 50.0 mg/kg/injection, schedule: Q04DX003 (ip), vehicle: saline
[13] = dose: 100.0 mg/kg/injection, schedule: Q04DX003 (ip), vehicle: saline
[14] = dose: 25.0 mg/kg/injection, schedule: Q01DX009 (ip), vehicle: saline
[15] = dose: 25.0 mg/kg/injection, schedule: Q04DX003 (ip), vehicle: saline
[16] = dose: 100.0 mg/kg/injection, schedule: Q01DX009 (ip), vehicle: saline

Measured: T/C

CCOC(=O)Cc1cc(=O)[nH][nH]c1=O
inactive: dose: 150.0 mg/kg/injection, schedule: Q04DX002 (ip), vehicle: Klucel (hydroxypropylcellulose) (HPC) 95 % of control | dose: 300.0 mg/kg/injection, schedule: Q04DX002 (ip), vehicle: Klucel (hydroxypropylcellulose) (HPC) 95 % of control

NC(=O)OCCc1c2ccccc2nc2ccccc12
inactive: dose: 200.0 mg/kg/injection, schedule: Q04DX002 (ip), vehicle: other 103 % of control

O=[N+]([O-])/C=C\c1cc2ccccc2c2ccccc12
inactive: dose: 100.0 mg/kg/injection, schedule: Q01DX001 (ip), vehicle: carboxymethylcellulose (CMC) 94 % of control | dose: 200.0 mg/kg/injection, schedule: Q01DX001 (ip), vehicle: carboxymethylcellulose (CMC) 94 % of control | dose: 400.0 mg/kg/injection, schedule: Q01DX001 (ip), vehicle: carboxymethylcellulose (CMC) 94 % of control

CCC(=O)OC1(c2ccccc2)CCN(CCCC(=O)c2ccccc2)CC1
inactive: dose: 20.0 mg/kg/injection, schedule: Q04DX003 (ip), vehicle: Klucel (hydroxypropylcellulose) (HPC) 111 % of control | dose: 40.0 mg/kg/injection, schedule: Q04DX003 (ip), vehicle: Klucel (hydroxypropylcellulose) (HPC) 96 % of control

Nc1ccc(N=Nc2ccc(S(N)(=O)=O)cc2)cn1
inactive: dose: 50.0 mg/kg/injection, schedule: Q01DX001 (ip), vehicle: other 97 % of control | dose: 100.0 mg/kg/injection, schedule: Q01DX001 (ip), vehicle: other 94 % of control | dose: 200.0 mg/kg/injection, schedule: Q01DX001 (ip), vehicle: other 103 % of control | dose: 400.0 mg/kg/injection, schedule: Q01DX001 (ip), vehicle: other 100 % of control

O=C1CCN(C2CC(O)C(CO)C2)C(=O)N1 (stereo not given)
inactive: [1] 101 % of control | [2] 95 % of control | [3] 101 % of control

C[CH2][Pb]([CH2]C)([CH2]C)[N]1C(=O)c2c(Cl)c(Cl)c(Cl)c(Cl)c2C1=O
inactive: dose: 12.5 mg/kg/injection, schedule: Q04DX002 (ip), vehicle: Klucel (hydroxypropylcellulose) (HPC) 107 % of control

N#Cc1ccc(Br)cc1[N+](=O)[O-]
inactive: dose: 6.25 mg/kg/injection, schedule: Q01DX009 (ip), vehicle: Klucel (hydroxypropylcellulose) (HPC) 103 % of control | [4] 89 % of control | [5] 86 % of control

COC1(c2ccco2)OC1(C)C (stereo not given)
inactive: dose: 5.0 mg/kg/injection, schedule: Q01DX009 (ip), vehicle: saline with Tween-80 94 % of control | dose: 5.0 mg/kg/injection, schedule: Q04DX003 (ip), vehicle: saline with Tween-80 96 % of control | dose: 10.0 mg/kg/injection, schedule: Q01DX009 (ip), vehicle: saline with Tween-80 97 % of control | dose: 10.0 mg/kg/injection, schedule: Q04DX003 (ip), vehicle: saline with Tween-80 102 % of control | dose: 20.0 mg/kg/injection, schedule: Q01DX009 (ip), vehicle: saline with Tween-80 116 % of control | dose: 20.0 mg/kg/injection, schedule: Q04DX003 (ip), vehicle: saline with Tween-80 98 % of control

CN(C)c1ccc(C(=O)C(O)c2ccccc2)cc1 (stereo not given)
inactive: [6] 92 % of control | [4] 98 % of control | [7] 88 % of control | [5] 100 % of control | [8] 88 % of control | [9] 96 % of control

COc1ccc(CCNC(=S)NC(=O)c2ccc(Cl)c(Cl)c2)cc1OC
inactive: [6] 91 % of control | [7] 86 % of control | [8] 93 % of control

Cc1ccc(NC(=O)OCCOc2ccc(Cl)cc2Cl)cc1[N+](=O)[O-]
inactive: dose: 50.0 mg/kg/injection, schedule: Q01DX009 (ip), vehicle: saline with Tween-80 97 % of control | [10] 104 % of control | [11] 104 % of control

Cc1cnc(Cl)[nH]1 (tested in a mixture with another compound)
inactive: dose: 100.0 mg/kg/injection, schedule: Q04DX002 (ip), vehicle: saline with Tween-80 100 % of control | dose: 200.0 mg/kg/injection, schedule: Q04DX002 (ip), vehicle: saline with Tween-80 113 % of control | dose: 400.0 mg/kg/injection, schedule: Q04DX002 (ip), vehicle: saline with Tween-80 113 % of control

CCN(CC)CC(O)Cn1cnc2c(N)ncnc21 (stereo not given)
inactive: [12] 104 % of control | [13] 111 % of control | dose: 200.0 mg/kg/injection, schedule: Q04DX003 (ip), vehicle: saline 93 % of control

Cc1nc(Cl)c2c(n1)Oc1nc(C)nc(Cl)c1C2c1ccc(Cl)cc1
inactive: dose: 50.0 mg/kg/injection, schedule: Q04DX003 (ip), vehicle: Klucel (hydroxypropylcellulose) (HPC) 97 % of control | [6] 96 % of control | [4] 97 % of control | [7] 97 % of control | [5] 101 % of control | [8] 107 % of control | [9] 95 % of control

COc1ccc(C(=O)C(C)(CN(C)C)c2ccccc2)cc1 (stereo not given)
inactive: [14] 93 % of control | [15] 92 % of control | dose: 50.0 mg/kg/injection, schedule: Q01DX009 (ip), vehicle: saline 100 % of control | [12] 94 % of control | [16] 102 % of control | [13] 93 % of control and 101 % of control

O=C1CC23CCC(=O)C2(CC3)C1 (stereo not given)
inactive: dose: 75.0 mg/kg/injection, schedule: Q04DX002 (ip), vehicle: saline 103 % of control | dose: 150.0 mg/kg/injection, schedule: Q04DX002 (ip), vehicle: saline 103 % of control | dose: 300.0 mg/kg/injection, schedule: Q04DX002 (ip), vehicle: saline 100 % of control

C1CN2CCOC2O1
inactive: [16] 101 % of control | dose: 200.0 mg/kg/injection, schedule: Q01DX009 (ip), vehicle: saline 108 % of control | dose: 400.0 mg/kg/injection, schedule: Q01DX009 (ip), vehicle: saline 100 % of control

CCN(CC)C(=O)c1ccc(C(Cl)(Cl)Cl)cc1
inactive: dose: 75.0 mg/kg/injection, schedule: Q01DX009 (ip), vehicle: saline sonified 91 % of control | [4] 87 % of control | dose: 150.0 mg/kg/injection, schedule: Q01DX009 (ip), vehicle: saline sonified 91 % of control | [5] 89 % of control | dose: 300.0 mg/kg/injection, schedule: Q01DX009 (ip), vehicle: saline sonified 87 % of control | [9] 91 % of control

O=C(/C=C/C(=O)n1ccc2ccccc21)n1ccc2ccccc21
inactive: dose: 50.0 mg/kg/injection, schedule: Q01DX001 (ip), vehicle: saline 95 % of control | [1] 95 % of control | [2] 101 % of control | [3] 95 % of control

NC(=O)NC(=O)CCl
inactive: dose: 50.0 mg/kg/injection, schedule: Q04DX002 (ip), vehicle: Klucel (hydroxypropylcellulose) (HPC) 103 % of control | dose: 100.0 mg/kg/injection, schedule: Q04DX002 (ip), vehicle: Klucel (hydroxypropylcellulose) (HPC) 109 % of control | dose: 200.0 mg/kg/injection, schedule: Q04DX002 (ip), vehicle: Klucel (hydroxypropylcellulose) (HPC) 95 % of control

Cc1ccc(C(=O)c2cccc([N+](=O)[O-])c2)cc1
inactive: [6] 104 % of control | [7] 103 % of control | [8] 98 % of control

OC1CCCC2CCCNC12 (stereo not given) (tested in a mixture with another compound)
inactive: [6] 105 % of control | [4] 93 % of control | [7] 95 % of control | [5] 105 % of control | [8] 90 % of control | [9] 89 % of control

Cc1c(NC(=O)Nc2ccccc2C(F)(F)F)c(=O)n(-c2ccccc2)n1C
inactive: [10] 104 % of control | [11] 98 % of control | dose: 400.0 mg/kg/injection, schedule: Q01DX009 (ip), vehicle: saline with Tween-80 91 % of control

O=C(NCCCl)Nc1ccc2c3c(cccc13)CC2
inactive: [6] 87 % of control | [5] 95 % of control

OCCNCCN1CCN(CCCN2c3ccccc3Sc3ccc(C(F)(F)F)cc32)CC1
inactive: dose: 6.25 mg/kg/injection, schedule: Q01DX009 (ip), vehicle: saline 111 % of control | dose: 6.25 mg/kg/injection, schedule: Q04DX003 (ip), vehicle: saline 104 % of control | dose: 12.5 mg/kg/injection, schedule: Q01DX009 (ip), vehicle: saline 105 % of control | dose: 12.5 mg/kg/injection, schedule: Q04DX003 (ip), vehicle: saline 101 % of control | [14] 88 % of control | [15] 95 % of control
